Results reported in ChEMBL document CHEMBL5465560, “Selectivity Literature for EUbOPEN Chemogenomic Library” (2024).
Blank lines part the entries; values can stand above or below the molecule they belong to.

How the values were obtained:
[1] = biological target: Serine/threonine-protein kinase mTOR (Homo sapiens, UniProt P42345); assay: Selectivity interaction (Ambit KINOMEscan and KiNATiv profiling in Jurkat cells) EUB0000090b MTOR; format: cell-based; conditions: at 1 µM
[2] = biological target: Macrophage-stimulating protein receptor (Homo sapiens, UniProt Q04912); assay: Selectivity interaction (KinomeScan (DiscoverX)) EUB0001079a MST1R; conditions: at 1 µM
[3] = biological target: T1, STE20-related kinase adapter protein alpha (Homo sapiens) (UniProt Q7RTN6); assay: Selectivity interaction (ActivX KiNativ screen (kinase selectivity in THP-1 cell lysates)) EUB0000639a STRADA; format: subcellular; conditions: lysate, at 0.2 µM
T1 sequence (whole entry): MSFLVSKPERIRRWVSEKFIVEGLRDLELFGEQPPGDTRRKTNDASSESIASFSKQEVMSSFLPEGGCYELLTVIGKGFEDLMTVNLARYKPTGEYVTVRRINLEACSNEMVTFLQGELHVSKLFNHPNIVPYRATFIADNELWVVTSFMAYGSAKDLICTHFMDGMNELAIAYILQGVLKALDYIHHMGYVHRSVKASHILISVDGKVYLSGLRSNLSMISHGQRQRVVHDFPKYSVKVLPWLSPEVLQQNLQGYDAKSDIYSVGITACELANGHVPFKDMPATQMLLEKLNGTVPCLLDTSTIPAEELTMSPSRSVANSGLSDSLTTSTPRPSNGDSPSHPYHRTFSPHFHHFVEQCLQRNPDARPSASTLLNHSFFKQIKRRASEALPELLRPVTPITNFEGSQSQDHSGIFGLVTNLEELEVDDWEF

[4] = biological target: Proto-oncogene tyrosine-protein kinase receptor Ret (Homo sapiens, UniProt P07949); assay: Selectivity interaction (Kinase panel (Invitrogen)) EUB0000639a RET; conditions: at 200 nM
[5] = biological target: T2, Serine/threonine-protein kinase TBK1 (Homo sapiens) (UniProt Q9UHD2); assay: Selectivity interaction (ActivX KiNativ screen (kinase selectivity in THP-1 cell lysates)) EUB0000639a TBK1; format: subcellular; conditions: lysate, at 5 µM
T2 sequence (whole entry): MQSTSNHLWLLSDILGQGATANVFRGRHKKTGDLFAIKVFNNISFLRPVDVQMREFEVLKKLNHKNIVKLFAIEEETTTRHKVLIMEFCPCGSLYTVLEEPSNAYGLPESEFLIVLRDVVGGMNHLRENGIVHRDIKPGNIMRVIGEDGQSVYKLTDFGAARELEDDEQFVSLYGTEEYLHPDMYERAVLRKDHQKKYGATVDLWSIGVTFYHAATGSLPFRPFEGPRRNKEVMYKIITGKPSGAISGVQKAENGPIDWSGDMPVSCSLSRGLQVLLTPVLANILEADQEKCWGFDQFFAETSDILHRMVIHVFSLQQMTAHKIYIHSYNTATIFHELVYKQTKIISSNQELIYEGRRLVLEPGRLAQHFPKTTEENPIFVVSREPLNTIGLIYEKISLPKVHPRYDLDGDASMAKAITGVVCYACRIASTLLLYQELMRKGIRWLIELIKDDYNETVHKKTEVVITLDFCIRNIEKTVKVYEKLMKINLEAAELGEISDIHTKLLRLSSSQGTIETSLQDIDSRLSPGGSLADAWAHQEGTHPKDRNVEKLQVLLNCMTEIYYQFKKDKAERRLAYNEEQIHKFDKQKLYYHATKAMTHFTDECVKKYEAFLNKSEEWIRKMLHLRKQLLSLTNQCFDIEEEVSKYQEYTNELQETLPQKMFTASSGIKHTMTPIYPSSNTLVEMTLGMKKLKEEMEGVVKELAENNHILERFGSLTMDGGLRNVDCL

[6] = biological target: T3, Serine/threonine-protein kinase 17A (Homo sapiens) (UniProt Q9UEE5); assay: Selectivity interaction (Kinase panel (Invitrogen)) EUB0000639a STK17A; conditions: at 200 nM
T3 sequence (whole entry): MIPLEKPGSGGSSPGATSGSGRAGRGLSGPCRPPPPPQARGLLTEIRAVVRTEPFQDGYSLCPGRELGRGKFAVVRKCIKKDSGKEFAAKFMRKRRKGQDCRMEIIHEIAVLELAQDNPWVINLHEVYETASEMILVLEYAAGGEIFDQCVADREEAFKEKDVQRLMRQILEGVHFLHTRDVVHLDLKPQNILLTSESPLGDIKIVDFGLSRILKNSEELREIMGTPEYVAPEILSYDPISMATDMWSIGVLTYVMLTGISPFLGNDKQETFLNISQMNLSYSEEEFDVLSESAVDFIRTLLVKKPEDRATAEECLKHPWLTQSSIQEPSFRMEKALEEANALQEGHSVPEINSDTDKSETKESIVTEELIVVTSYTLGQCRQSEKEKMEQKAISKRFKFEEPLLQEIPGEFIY

[7] = biological target: Serine/threonine-protein kinase pim-3 (Homo sapiens) (UniProt Q86V86); assay: Selectivity interaction (KinomeScan (DiscoverX)) EUB0000229b PIM3; conditions: at 10 µM
[8] = biological target: Fibroblast growth factor receptor 3 (Homo sapiens, UniProt P22607); assay: Selectivity interaction (ProQinase) EUB0000171b FGFR3; conditions: at 5 µM
[9] = biological target: Acetylcholine receptor subunit alpha (Homo sapiens, UniProt P02708); assay: Selectivity interaction (Panel of kinases, GPCRs, ion channels and transporters (enzymatic assay)) EUB0000223bCl CHRNA1
[10] = biological target: Mitogen-activated protein kinase 14 (Homo sapiens, UniProt Q16539); assay: Selectivity interaction (Kinase panel (Z-LYTE Assay)) EUB0001632a MAPK14; conditions: at 10 µM
[11] = biological target: T4, Serine/threonine-protein kinase Nek5 (Homo sapiens) (UniProt Q6P3R8); assay: Selectivity interaction (KinomeScan (DiscoverX)) EUB0000695a NEK5; conditions: at 100 nM
T4 sequence (whole entry): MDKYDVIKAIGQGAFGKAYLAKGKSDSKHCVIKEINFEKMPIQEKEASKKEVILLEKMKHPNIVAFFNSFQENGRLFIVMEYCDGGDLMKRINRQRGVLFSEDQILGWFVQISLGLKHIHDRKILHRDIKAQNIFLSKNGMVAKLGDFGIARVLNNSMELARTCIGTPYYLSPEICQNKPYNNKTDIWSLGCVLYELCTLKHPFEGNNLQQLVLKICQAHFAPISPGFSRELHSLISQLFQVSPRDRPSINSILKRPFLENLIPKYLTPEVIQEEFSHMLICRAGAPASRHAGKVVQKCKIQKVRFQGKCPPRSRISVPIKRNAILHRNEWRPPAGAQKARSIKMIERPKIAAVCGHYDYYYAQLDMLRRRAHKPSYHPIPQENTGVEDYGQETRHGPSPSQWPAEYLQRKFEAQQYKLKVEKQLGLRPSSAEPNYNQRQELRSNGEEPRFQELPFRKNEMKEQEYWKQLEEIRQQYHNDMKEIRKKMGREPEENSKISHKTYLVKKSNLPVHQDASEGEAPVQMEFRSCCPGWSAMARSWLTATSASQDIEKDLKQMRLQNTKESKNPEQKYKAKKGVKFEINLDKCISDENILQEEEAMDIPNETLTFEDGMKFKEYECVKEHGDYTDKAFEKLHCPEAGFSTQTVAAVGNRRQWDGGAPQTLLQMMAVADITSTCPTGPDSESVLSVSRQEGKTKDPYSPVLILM

Sequence of Acetylcholine receptor subunit alpha (P02708 whole entry): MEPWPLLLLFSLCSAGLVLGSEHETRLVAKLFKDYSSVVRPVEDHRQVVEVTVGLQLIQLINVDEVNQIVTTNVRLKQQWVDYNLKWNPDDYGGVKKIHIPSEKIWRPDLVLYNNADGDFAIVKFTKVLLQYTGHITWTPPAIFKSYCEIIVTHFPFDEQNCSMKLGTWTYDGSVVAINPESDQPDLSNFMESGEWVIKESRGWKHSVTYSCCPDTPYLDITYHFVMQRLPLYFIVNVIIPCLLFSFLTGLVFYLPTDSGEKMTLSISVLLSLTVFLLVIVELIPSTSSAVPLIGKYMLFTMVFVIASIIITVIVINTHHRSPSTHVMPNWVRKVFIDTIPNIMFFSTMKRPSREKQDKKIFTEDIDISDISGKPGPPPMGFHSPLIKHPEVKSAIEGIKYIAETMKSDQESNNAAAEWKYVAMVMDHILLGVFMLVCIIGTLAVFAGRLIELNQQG
Sequence of Proto-oncogene tyrosine-protein kinase receptor Ret (P07949 whole entry): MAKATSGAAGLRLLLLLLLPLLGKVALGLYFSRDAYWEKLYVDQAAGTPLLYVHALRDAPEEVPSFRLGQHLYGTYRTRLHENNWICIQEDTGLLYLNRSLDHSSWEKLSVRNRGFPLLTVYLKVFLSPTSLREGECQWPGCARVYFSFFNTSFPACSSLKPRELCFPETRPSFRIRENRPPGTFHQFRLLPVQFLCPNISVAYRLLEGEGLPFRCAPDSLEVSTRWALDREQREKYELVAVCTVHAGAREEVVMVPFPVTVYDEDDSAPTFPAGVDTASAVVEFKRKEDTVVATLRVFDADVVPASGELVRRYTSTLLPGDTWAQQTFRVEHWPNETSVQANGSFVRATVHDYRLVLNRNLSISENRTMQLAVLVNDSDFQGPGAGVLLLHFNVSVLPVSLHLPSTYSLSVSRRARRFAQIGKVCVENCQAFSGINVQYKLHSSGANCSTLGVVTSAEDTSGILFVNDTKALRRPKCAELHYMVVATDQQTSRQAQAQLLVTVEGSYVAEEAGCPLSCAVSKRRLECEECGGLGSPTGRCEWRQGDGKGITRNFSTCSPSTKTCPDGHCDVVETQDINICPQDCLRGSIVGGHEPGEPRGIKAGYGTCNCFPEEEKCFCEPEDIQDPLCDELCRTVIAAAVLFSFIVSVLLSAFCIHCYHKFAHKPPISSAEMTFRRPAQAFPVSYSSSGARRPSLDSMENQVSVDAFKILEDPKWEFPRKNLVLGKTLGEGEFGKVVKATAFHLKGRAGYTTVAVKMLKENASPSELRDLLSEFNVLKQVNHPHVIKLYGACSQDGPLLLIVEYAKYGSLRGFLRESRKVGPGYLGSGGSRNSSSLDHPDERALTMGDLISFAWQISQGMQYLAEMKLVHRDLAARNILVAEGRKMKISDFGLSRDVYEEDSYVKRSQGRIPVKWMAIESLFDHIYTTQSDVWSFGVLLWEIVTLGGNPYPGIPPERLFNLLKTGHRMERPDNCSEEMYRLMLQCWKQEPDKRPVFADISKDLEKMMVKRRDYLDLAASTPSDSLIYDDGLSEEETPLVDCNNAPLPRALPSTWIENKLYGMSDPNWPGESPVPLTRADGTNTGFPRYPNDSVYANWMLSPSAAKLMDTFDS
Sequence of Mitogen-activated protein kinase 14 (Q16539 whole entry): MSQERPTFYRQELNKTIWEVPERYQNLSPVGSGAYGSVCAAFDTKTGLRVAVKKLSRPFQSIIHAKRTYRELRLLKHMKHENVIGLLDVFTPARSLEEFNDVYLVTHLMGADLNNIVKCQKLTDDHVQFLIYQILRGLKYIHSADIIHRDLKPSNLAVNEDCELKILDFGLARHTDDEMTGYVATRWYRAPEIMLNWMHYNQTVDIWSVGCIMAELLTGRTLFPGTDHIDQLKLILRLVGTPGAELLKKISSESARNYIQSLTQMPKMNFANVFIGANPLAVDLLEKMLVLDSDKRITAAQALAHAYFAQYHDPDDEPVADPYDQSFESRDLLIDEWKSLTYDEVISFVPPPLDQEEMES
Sequence of Macrophage-stimulating protein receptor (Q04912 25-304 limits assumed): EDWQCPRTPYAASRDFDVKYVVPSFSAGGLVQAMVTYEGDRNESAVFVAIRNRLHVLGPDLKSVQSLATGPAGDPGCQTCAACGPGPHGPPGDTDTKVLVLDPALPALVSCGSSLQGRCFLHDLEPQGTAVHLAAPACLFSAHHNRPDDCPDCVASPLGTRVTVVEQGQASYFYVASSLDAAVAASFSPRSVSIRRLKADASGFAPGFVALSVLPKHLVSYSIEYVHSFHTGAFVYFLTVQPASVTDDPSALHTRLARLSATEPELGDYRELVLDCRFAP
Sequence of Macrophage-stimulating protein receptor (Q04912 310-1400 limits assumed): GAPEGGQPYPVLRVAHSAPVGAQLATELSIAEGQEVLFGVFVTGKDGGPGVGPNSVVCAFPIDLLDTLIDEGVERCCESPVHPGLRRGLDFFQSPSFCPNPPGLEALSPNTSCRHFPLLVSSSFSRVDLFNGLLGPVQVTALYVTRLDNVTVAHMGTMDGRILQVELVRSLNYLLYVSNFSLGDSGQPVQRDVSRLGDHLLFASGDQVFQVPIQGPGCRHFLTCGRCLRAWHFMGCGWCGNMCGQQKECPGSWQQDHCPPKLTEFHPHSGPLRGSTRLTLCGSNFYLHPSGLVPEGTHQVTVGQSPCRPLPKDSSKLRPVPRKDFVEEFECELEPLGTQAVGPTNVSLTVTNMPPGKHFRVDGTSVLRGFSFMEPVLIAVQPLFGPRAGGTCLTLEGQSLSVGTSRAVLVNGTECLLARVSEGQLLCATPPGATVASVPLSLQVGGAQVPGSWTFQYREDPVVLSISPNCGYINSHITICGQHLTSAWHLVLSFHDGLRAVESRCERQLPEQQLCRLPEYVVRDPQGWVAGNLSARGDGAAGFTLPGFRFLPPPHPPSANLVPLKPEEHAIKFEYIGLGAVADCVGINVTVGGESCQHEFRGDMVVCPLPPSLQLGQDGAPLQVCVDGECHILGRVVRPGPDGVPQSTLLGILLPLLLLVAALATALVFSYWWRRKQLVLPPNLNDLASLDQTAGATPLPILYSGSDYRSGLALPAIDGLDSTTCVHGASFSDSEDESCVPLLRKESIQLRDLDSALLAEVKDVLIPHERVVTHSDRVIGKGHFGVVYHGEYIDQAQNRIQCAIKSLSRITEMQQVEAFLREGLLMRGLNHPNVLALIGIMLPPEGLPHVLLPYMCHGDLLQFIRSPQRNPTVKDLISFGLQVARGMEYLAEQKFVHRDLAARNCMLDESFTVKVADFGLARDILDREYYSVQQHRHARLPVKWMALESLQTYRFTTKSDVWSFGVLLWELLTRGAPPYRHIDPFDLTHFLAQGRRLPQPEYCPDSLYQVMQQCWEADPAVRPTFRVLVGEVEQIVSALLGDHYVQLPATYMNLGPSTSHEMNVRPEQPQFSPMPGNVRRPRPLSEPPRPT
Sequence of Fibroblast growth factor receptor 3 (P22607 23-806 limits assumed): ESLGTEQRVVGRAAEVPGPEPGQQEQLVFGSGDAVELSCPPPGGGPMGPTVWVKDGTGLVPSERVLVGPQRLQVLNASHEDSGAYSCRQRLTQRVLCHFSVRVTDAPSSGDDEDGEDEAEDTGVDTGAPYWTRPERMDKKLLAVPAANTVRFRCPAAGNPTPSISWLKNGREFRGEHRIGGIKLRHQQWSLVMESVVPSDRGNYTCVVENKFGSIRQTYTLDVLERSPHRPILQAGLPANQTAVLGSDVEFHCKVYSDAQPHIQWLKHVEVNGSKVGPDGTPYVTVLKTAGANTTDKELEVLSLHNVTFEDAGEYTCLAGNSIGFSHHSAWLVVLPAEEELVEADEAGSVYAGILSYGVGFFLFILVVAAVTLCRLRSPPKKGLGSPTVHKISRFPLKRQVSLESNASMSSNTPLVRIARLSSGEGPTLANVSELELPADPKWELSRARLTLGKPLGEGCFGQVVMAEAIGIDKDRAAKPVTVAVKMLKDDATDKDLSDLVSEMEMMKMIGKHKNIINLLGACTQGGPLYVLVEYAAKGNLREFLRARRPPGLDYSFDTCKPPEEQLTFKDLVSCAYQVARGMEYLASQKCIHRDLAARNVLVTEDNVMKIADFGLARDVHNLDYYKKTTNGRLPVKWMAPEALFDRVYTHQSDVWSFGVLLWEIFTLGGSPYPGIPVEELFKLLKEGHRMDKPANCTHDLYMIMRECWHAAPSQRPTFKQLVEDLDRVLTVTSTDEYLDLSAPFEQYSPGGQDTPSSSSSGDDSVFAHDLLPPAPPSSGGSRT

Compound: CN(C)C/C=C/C(=O)Nc1ccc(C(=O)N2CCCC(Nc3ncc(Cl)c(-c4c[nH]c5ccccc45)n3)C2)cc1 (stereo unspecified)
% of control [1]: 100%

Compound: Nc1cnc(N2CCc3cc(S(=O)(=O)Nc4c(F)cc(Cl)cc4F)cc(N4CCCC4=O)c32)nc1 [TP-020n]
% of control [2]: 98%

% of inhibition [3]: -15.4% | % of inhibition [4]: 66% | % of inhibition [5]: 23.9% | % of inhibition [6]: 56.9%
Compound: CC[C@@H]1[C@H](F)C(=O)N[C@@H]1COc1nccc2cc(C(N)=O)c(OC)cc12 [ZIMLOVISERTIB]

Compound: COc1cc(N(C)c2ccnc3ccc(C(F)(F)F)cc23)cc(OC)c1OC
% binding [7]: 78%

% of control [8]: 91%
Compound: C=CC(=O)Nc1cccc(C(=O)Nc2ccc(Nc3cc(-c4[nH]c(SC)nc4C)ccn3)cc2)c1

Compound: COc1cc(C(=O)N2CC[C@@H](O)[C@@H](N)C2)cc2nc(-c3cc4ccccc4n3CC3CC3)n(C)c12
pXC50 [9]: 5.8 M

% of control [10]: -2.35%
Compound: Cn1cc(-n2cnc3c(NCc4nc5cc(Cl)c(Cl)cc5[nH]4)nc(N4CCOCC4)nc32)cn1

Compound: Cc1cc(F)c(C(=O)Nc2cccc(-c3nncn3C(C)C)n2)cc1-n1cnc(C2CC2)c1
% of control [11]: 91%
